From patent US12559492B2, “BRAF degraders” (C4 Therapeutics, Inc., priority 2020, dated 2026)

Target: BRAF^V600E protein (Homo sapiens, UniProt P15056, V600E)
Assay: HiBiT cellular BRAF V600E degradation assay
Format: cell-based
Conditions: 24 h incubation; for DC50: A375.10 cells (HiBiT tag knocked in at N-terminal of BRAF V600E), concentration at which 50% of total cellular BRAF V600E is degraded; for Emax: A375.10 cells, Emax = amount of residual protein remaining in the cell after compound treatment, read-out: HiBit 24 h Emax

Chain of BRAF^V600E protein (P15056 whole entry V600E): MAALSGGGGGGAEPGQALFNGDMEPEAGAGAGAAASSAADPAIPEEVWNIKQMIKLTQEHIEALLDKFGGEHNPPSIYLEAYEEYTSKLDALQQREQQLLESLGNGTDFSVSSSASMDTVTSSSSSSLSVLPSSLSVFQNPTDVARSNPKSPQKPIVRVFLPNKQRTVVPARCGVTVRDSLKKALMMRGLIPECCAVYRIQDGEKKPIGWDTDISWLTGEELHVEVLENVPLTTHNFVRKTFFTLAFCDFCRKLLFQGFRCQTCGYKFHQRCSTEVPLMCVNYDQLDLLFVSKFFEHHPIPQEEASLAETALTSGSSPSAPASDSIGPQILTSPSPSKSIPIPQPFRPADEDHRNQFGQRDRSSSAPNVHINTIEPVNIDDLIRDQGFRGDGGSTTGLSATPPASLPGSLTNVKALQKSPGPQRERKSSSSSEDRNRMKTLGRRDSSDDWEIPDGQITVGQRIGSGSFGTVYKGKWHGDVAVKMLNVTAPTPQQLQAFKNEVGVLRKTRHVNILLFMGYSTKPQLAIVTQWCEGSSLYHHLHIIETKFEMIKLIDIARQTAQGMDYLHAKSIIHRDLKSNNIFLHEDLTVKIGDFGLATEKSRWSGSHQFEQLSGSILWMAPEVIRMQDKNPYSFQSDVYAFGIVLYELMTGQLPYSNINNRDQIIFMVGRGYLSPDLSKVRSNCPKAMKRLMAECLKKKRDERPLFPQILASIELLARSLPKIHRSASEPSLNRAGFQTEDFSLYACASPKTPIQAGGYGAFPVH

Structure (SMILES) | DC50 | Emax
CCN(C)S(=O)(=O)Nc1ccc(F)c(C(=O)c2c[nH]c3ncc(-c4ccc(N5CCN(C(=O)CC6(O)CCN(c7ccc(NC8CCC(=O)NC8=O)cc7F)CC6)CC5)cc4F)cc23)c1F (stereo not shown) [Example 210, 5-[4-[4-[2-[1-[4-[(2,6-dioxo-3-piperidyl)amino]-2-fluoro-phenyl]-4-hydroxy-4-piperidyl]acetyl]piperazin-1-yl]-2-fluoro-phenyl]-3-[3-[[ethyl(methyl)sulfamoyl]amino]-2,6-difluoro-benzoyl]-1H-pyrrolo[2,3-b]pyridine] | 7.69 nM | 7.6%
CCN(C)S(=O)(=O)Nc1ccc(F)c(C(=O)c2c[nH]c3ncc(-c4cnc(N5CCN(C(=O)CC6(O)CCN(c7ccc(NC8CCC(=O)NC8=O)cc7F)CC6)CC5)c(S(C)(=O)=O)c4)cc23)c1F (stereo not shown) [Example 211, 5-[6-[4-[2-[1-[4-[(2,6-dioxo-3-piperidyl)amino]-2-fluoro-phenyl]-4-hydroxy-4-piperidyl]acetyl]piperazin-1-yl]-5-methylsulfonyl-3-pyridyl]-3-[3-[[ethyl(methyl)sulfamoyl]amino]-2,6-difluoro-benzoyl]-1H-pyrrolo[2,3-b]pyridine] | 11.3 nM | 9.3%
CCN(C)S(=O)(=O)Nc1ccc(F)c(C(=O)c2c[nH]c3ncc(-c4ccc(N5CCN(C(=O)CC6(O)CCN(c7ccc(NC8CCC(=O)NC8=O)cc7F)CC6)CC5)c(C(F)(F)F)c4)cc23)c1F (stereo not shown) [Example 212, 5-[4-[4-[2-[1-[4-[(2,6-dioxo-3-piperidyl)amino]-2-fluoro-phenyl]-4-hydroxy-4-piperidyl]acetyl]piperazin-1-yl]-3-(trifluoromethyl)phenyl]-3-[3-[[ethyl(methyl)sulfamoyl]amino]-2,6-difluoro-benzoyl]-1H-pyrrolo[2,3-b]pyridine] | 32.8 nM | 7.02%
CCN(C)S(=O)(=O)Nc1ccc(F)c(C(=O)c2c[nH]c3ncc(-c4cnc(N5CCN(C(=O)CC6(O)CCN(c7ccc(N8CCC(=O)NC8=O)cc7Cl)CC6)CC5)nc4)cc23)c1F [Example 213, 5-[2-[4-[2-[1-[2-chloro-4-(2,4-dioxohexahydropyrimidin-1-yl)phenyl]-4-hydroxy-4-piperidyl]acetyl]piperazin-1-yl]pyrimidin-5-yl]-3-[3-[[ethyl(methyl)sulfamoyl]amino]-2,6-difluoro-benzoyl]-1H-pyrrolo[2,3-b]pyridine] | 0.42 nM | 6.06%
CCN(C)S(=O)(=O)Nc1ccc(F)c(C(=O)c2c[nH]c3ncc(-c4ccc(N5CCN(C(=O)CC6(O)CCN(c7ccc(N8CCC(=O)NC8=O)cc7Cl)CC6)CC5)nc4)cc23)c1F [Example 214, 5-[6-[4-[2-[1-[2-chloro-4-(2,4-dioxohexahydropyrimidin-1-yl)phenyl]-4-hydroxy-4-piperidyl]acetyl]piperazin-1-yl]-3-pyridyl]-3-[3-[[ethyl(methyl)sulfamoyl]amino]-2,6-difluoro-benzoyl]-1H-pyrrolo[2,3-b]pyridine] | 0.65 nM | 5.48%
CCN(C)S(=O)(=O)Nc1ccc(F)c(C(=O)c2c[nH]c3ncc(-c4ccc(N5CCN(C(=O)CC6(O)CCN(c7cc(F)c(N8CCC(=O)NC8=O)cc7Cl)CC6)CC5)nc4)cc23)c1F [Example 215, 5-[6-[4-[2-[1-[2-chloro-4-(2,4-dioxohexahydropyrimidin-1-yl)-5-fluoro-phenyl]-4-hydroxy-4-piperidyl]acetyl]piperazin-1-yl]-3-pyridyl]-3-[3-[[ethyl(methyl)sulfamoyl]amino]-2,6-difluoro-benzoyl]-1H-pyrrolo[2,3-b]pyridine] | 2.71 nM | 7.87%
CCN(C)S(=O)(=O)Nc1ccc(F)c(C(=O)c2c[nH]c3ncc(-c4cnc(N5CCN(C(=O)CC6(O)CCN(c7cc(F)c(N8CCC(=O)NC8=O)cc7Cl)CC6)CC5)nc4)cc23)c1F [Example 216, 5-[2-[4-[2-[1-[2-chloro-4-(2,4-dioxohexahydropyrimidin-1-yl)-5-fluoro-phenyl]-4-hydroxy-4-piperidyl]acetyl]piperazin-1-yl]pyrimidin-5-yl]-3-[3-[[ethyl(methyl)sulfamoyl]amino]-2,6-difluoro-benzoyl]-1H-pyrrolo[2,3-b]pyridine] | 1.33 nM | 7.4%
CN(C1CC1)S(=O)(=O)Nc1ccc(F)c(C(=O)c2c[nH]c3ncc(-c4ccc(N5CCN(C(=O)CC6(O)CCN(c7ccc(NC8CCC(=O)NC8=O)cc7F)CC6)CC5)nc4)cc23)c1F (stereo not shown) [Example 217, 3-[3-[[cyclopropyl(methyl)sulfamoyl]amino]-2,6-difluoro-benzoyl]-5-[6-[4-[2-[1-[4-[(2,6-dioxo-3-piperidyl)amino]-2-fluoro-phenyl]-4-hydroxy-4-piperidyl]acetyl]piperazin-1-yl]-3-pyridyl]-1H-pyrrolo[2,3-b]pyridine] | 62.2 nM | 21%
CCN(C)S(=O)(=O)Nc1ccc(F)c(C(=O)c2c[nH]c3ncc(-c4ccc(N5CCN(C(=O)CC6(O)CCN(c7cc(Cl)c(N8CCC(=O)NC8=O)cc7Cl)CC6)CC5)nc4)cc23)c1F [Example 218, 5-[6-[4-[2-[1-[2,5-dichloro-4-(2,4-dioxohexahydropyrimidin-1-yl)phenyl]-4-hydroxy-4-piperidyl]acetyl]piperazin-1-yl]-3-pyridyl]-3-[3-[[ethyl(methyl)sulfamoyl]amino]-2,6-difluoro-benzoyl]-1H-pyrrolo[2,3-b]pyridine] | 4.1 nM | 6.24%
CCN(C)S(=O)(=O)Nc1ccc(F)c(C(=O)c2c[nH]c3ncc(-c4ccc(N5CCN(C(=O)CC6(O)CCN(c7cc(Cl)c(N8CCC(=O)NC8=O)cc7F)CC6)CC5)nc4)cc23)c1F [Example 219, 5-[6-[4-[2-[1-[5-chloro-4-(2,4-dioxohexahydropyrimidin-1-yl)-2-fluoro-phenyl]-4-hydroxy-4-piperidyl]acetyl]piperazin-1-yl]-3-pyridyl]-3-[3-[[ethyl(methyl)sulfamoyl]amino]-2,6-difluoro-benzoyl]-1H-pyrrolo[2,3-b]pyridine] | 1.65 nM | 6.11%
CCN(C)S(=O)(=O)Nc1ccc(F)c(C(=O)c2c[nH]c3ncc(-c4ccc(N5CCN(C(=O)CC6(O)CCN(c7cc(F)c(N8CCC(=O)NC8=O)cc7F)CC6)CC5)nc4)cc23)c1F [Example 220, 5-[6-[4-[2-[1-[4-(2,4-dioxohexahydropyrimidin-1-yl)-2,5-difluoro-phenyl]-4-hydroxy-4-piperidyl]acetyl]piperazin-1-yl]-3-pyridyl]-3-[3-[[ethyl(methyl)sulfamoyl]amino]-2,6-difluoro-benzoyl]-1H-pyrrolo[2,3-b]pyridine] | 1.45 nM | 7.62%
CCN(C)S(=O)(=O)Nc1ccc(F)c(C(=O)c2c[nH]c3ncc(-c4cc(F)c(N5CCN(C(=O)CC6(O)CCN(c7ccc(NC8CCC(=O)NC8=O)cc7F)CC6)CC5)cc4F)cc23)c1F (stereo not shown) [Example 221, 5-[4-[4-[2-[1-[4-[(2,6-dioxo-3-piperidyl)amino]-2-fluoro-phenyl]-4-hydroxy-4-piperidyl]acetyl]piperazin-1-yl]-2,5-difluoro-phenyl]-3-[3-[[ethyl(methyl)sulfamoyl]amino]-2,6-difluoro-benzoyl]-1H-pyrrolo[2,3-b]pyridine] | 5.65 nM | 9.12%

Other lines, results leading:

DC50 | Emax | Structure (SMILES)
17 nM | 13% | CCN(C)S(=O)(=O)Nc1ccc(F)c(C(=O)c2c[nH]c3ncc(-c4ccc(N5CCN(C(=O)CN6CCC(c7ccc(OC8CCC(=O)NC8=O)cc7)CC6)CC5)nc4)cc23)c1F (stereo not shown) [Example A1, 5-[6-[4-[2-[4-[4-(2,6-Dioxopiperidin-3-yl)oxyphenyl]piperidin-1-yl]acetyl]piperazin-1-yl]pyridin-3-yl]-3-[3-[[ethyl(methyl)sulfamoyl]amino]-2,6-difluorobenzoyl]-1H-pyrrolo[2,3-b]pyridine]
66 nM | 22% | CCN(C)S(=O)(=O)Nc1ccc(F)c(C(=O)c2c[nH]c3ncc(-c4ccc(N5CCN(C(=O)CCCN6CCC(c7ccc(OC8CCC(=O)NC8=O)cc7)CC6)CC5)nc4)cc23)c1F (stereo not shown) [Example A2, 5-[6-[4-[4-[4-[4-(2,6-Dioxopiperidin-3-yl)oxyphenyl]piperidin-1-yl]butanoyl]piperazin-1-yl]pyridin-3-yl]-3-[3-[[ethyl(methyl)sulfamoyl]amino]-2,6-difluorobenzoyl]-1H-pyrrolo[2,3-b]pyridine]
46 nM | 19% | CCN(C)S(=O)(=O)Nc1ccc(F)c(C(=O)c2c[nH]c3ncc(-c4ccc(N5CCN(CC(=O)N6CCC(c7ccc(OC8CCC(=O)NC8=O)cc7)CC6)CC5)nc4)cc23)c1F (stereo not shown) [Example A3, 5-[6-[4-[2-[4-[4-(2,6-Dioxopiperidin-3-yl)oxyphenyl]piperidin-1-yl]-2-oxoethyl]piperazin-1-yl]pyridin-3-yl]-3-[3-[[ethyl(methyl)sulfamoyl]amino]-2,6-difluorobenzoyl]-1H-pyrrolo[2,3-b]pyridine]
83 nM | 31% | CCN(C)S(=O)(=O)Nc1ccc(F)c(C(=O)c2c[nH]c3ncc(-c4ccc(CN5CCN(C(=O)N6CCN(c7ccc(OC8CCC(=O)NC8=O)cc7)CC6)CC5)cc4)cc23)c1F (stereo not shown) [Example A4, 5-[4-[[4-[4-[4-(2,6-Dioxopiperidin-3-yl)oxyphenyl]piperazine-1-carbonyl]piperazin-1-yl]methyl]phenyl]-3-[3-[[ethyl(methyl)sulfamoyl]amino]-2,6-difluorobenzoyl]-1H-pyrrolo[2,3-b]pyridine]
104 nM | 34% | CCN(C)S(=O)(=O)Nc1ccc(F)c(C(=O)c2c[nH]c3ncc(-c4ccc(N5CCN(CCCC(=O)N6CCC(c7ccc(OC8CCC(=O)NC8=O)cc7)CC6)CC5)nc4)cc23)c1F (stereo not shown) [Example A5, 5-[6-[4-[4-[4-[4-(2,6-Dioxopiperidin-3-yl)oxyphenyl]piperidin-1-yl]-4-oxobutyl]piperazin-1-yl]pyridin-3-yl]-3-[3-[[ethyl(methyl)sulfamoyl]amino]-2,6-difluorobenzoyl]-1H-pyrrolo[2,3-b]pyridine]
